Reference: patent publication US20240190880A1 (THE REGENTS OF THE UNIVERSITY OF MICHIGAN, priority 2021, published 2024)

Each molecule was assayed against T1, ER (Homo sapiens, UniProt P03372) (assay: ER degradation activity, in-cell western blot analysis in T47D cells). Conditions: compounds 16 hours, Table A does not say whether T47D or MCF7, read-out: Potency (DC50).
T1 construct: host or cells: T47D and MCF7 human breast cancer cells
T1 sequence (P03372 1-595): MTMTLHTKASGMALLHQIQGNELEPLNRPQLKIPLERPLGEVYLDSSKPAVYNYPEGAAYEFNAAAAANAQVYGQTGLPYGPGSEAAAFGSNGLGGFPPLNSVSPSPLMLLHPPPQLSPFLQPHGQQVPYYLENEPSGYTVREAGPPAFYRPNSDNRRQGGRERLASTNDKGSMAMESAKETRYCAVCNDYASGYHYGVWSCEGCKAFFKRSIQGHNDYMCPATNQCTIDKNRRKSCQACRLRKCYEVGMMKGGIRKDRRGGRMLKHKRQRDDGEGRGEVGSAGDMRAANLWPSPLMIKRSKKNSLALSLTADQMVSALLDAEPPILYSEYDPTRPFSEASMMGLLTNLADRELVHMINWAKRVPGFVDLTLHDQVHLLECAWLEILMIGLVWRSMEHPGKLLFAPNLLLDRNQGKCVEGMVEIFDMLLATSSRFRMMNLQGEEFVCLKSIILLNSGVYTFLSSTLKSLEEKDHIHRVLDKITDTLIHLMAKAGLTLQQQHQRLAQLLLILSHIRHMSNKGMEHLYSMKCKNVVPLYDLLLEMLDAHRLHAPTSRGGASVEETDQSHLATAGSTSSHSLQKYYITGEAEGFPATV
Type: cell-based
How it was run: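 T47D cells cultured in DMEM with 10% FBS, treated with compounds (final 0.5% DMSO) for 16 h. ER level measured by in-cell western with anti-rabbit-680/anti-mouse-800 near-infrared detection. Relative ER percentage calculated against untreated and DMSO-treated wells set as 100%.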

DC50, 10 to 100 nM:
C[C@@H]1Cc2c([nH]c3ccccc23)[C@@H](c2c(F)cc(C3CCC4(CC3)CCN(C(=O)CN3Cc5cc6c(cc5C3)C(=O)N(C3CCC(=O)NC3=O)C6=O)CC4)cc2F)N1CC(F)F (stereo partly drawn) [E 480, 6-(2-(9-(4-((1R,3R)-2-(2,2-difluoroethyl)-3-methyl-2,3,4,9-tetrahydro-1H-pyrido[3,4-b]indol-1-yl)-3,5-difluorophenyl)-3-azaspiro[5.5]undecan-3-yl)-2-oxoethyl)-2-(2,6-dioxopiperidin-3-yl)-6,7-dihydropyrrolo[3,4-f]isoindole-1,3(2H,5H)-dione]
C[C@@H]1Cc2c([nH]c3ccccc23)[C@@H](c2ccc(C3=CCC(C(=O)N4CCC(N5Cc6cc7c(cc6C5)C(=O)N(C5CCC(=O)NC5=O)C7=O)CC4)CC3)cc2F)N1CC(C)(C)F (stereo partly drawn) [E 481, 2-(2,6-dioxopiperidin-3-yl)-6-(1-(3′-fluoro-4′-((1R,3R)-2-(2-fluoro-2-methylpropyl)-3-methyl-2,3,4,9-tetrahydro-1H-pyrido[3,4-b]indol-1-yl)-2,3,4,5-tetrahydro-[1,1′-biphenyl]-4-carbonyl)piperidin-4-yl)-6,7-dihydropyrrolo[3,4-f]isoindole-1,3(2H,5H)-dione]

DC50, > 100 nM:
C[C@@H]1Cc2c([nH]c3ccccc23)[C@@H](c2ccc(C3=CCC(C(=O)N4CCC(N5Cc6cc7c(cc6C5)C(=O)N(C5CCC(=O)NC5=O)C7=O)CC4)CC3)cc2F)N1CC(C)(F)F (stereo partly drawn) [E 482, 6-(1-(4′-((1R,3R)-2-(2,2-difluoropropyl)-3-methyl-2,3,4,9-tetrahydro-1H-pyrido[3,4-b]indol-1-yl)-3′-fluoro-2,3,4,5-tetrahydro-[1,1′-biphenyl]-4-carbonyl)piperidin-4-yl)-2-(2,6-dioxopiperidin-3-yl)-6,7-dihydropyrrolo[3,4-f]isoindole-1,3(2H,5H)-dione]
C[C@@H]1Cc2c([nH]c3ccccc23)[C@@H](c2ncc(C3=CCC(C(=O)N4CCC(N5Cc6cc7c(cc6C5)C(=O)N(C5CCC(=O)NC5=O)C7=O)CC4)CC3)cc2F)N1CC(C)(F)F (stereo partly drawn) [E 483, 6-(1-(4-(6-((1S,3R)-2-(2,2-difluoropropyl)-3-methyl-2,3,4,9-tetrahydro-1H-pyrido[3,4-b]indol-1-yl)-5-fluoropyridin-3-yl)cyclohex-3-ene-1-carbonyl)piperidin-4-yl)-2-(2,6-dioxopiperidin-3-yl)-6,7-dihydropyrrolo[3,4-f]isoindole-1,3(2H,5H)-dione]
C[C@@H]1Cc2c([nH]c3ccccc23)[C@@H](c2ncc(C3=CCC(C(=O)N4CCC(N5Cc6cc7c(cc6C5)C(=O)N(C5CCC(=O)NC5=O)C7=O)CC4)CC3)cc2F)N1CC(C)(C)F (stereo partly drawn) [E 484, 2-(2,6-dioxopiperidin-3-yl)-6-(1-(4-(5-fluoro-6-((1S,3R)-2-(2-fluoro-2-methylpropyl)-3-methyl-2,3,4,9-tetrahydro-1H-pyrido[3,4-b]indol-1-yl)pyridin-3-yl)cyclohex-3-ene-1-carbonyl)piperidin-4-yl)-6,7-dihydropyrrolo[3,4-f]isoindole-1,3(2H,5H)-dione]
C[C@@H]1Cc2c([nH]c3ccccc23)[C@@H](c2c(F)cc(C3=CCC(C(=O)N4CCC(N5Cc6cc7c(cc6C5)C(=O)N(C5CCC(=O)NC5=O)C7=O)CC4)CC3)cc2F)N1CC1(F)CC1 (stereo partly drawn) [E 485, 6-(1-(3′,5′-difluoro-4′-((1R,3R)-2-((1-fluorocyclopropyl)methyl)-3-methyl-2,3,4,9-tetrahydro-1H-pyrido[3,4-b]indol-1-yl)-2,3,4,5-tetrahydro-[1,1′-biphenyl]-4-carbonyl)piperidin-4-yl)-2-(2,6-dioxopiperidin-3-yl)-6,7-dihydropyrrolo[3,4-f]isoindole-1,3(2H,5H)-dione]
